Source: patent EP1785723A1, “Micro calorimetric analysis of mammalian cell susceptibility to agents that affect cell growth, metabolism and immune response, and use of micro calorimetric analysis in a transplantation test” (Stratos Bio Ltd., priority 2005, dated 2007)

Tests used:
respiring E.coli = assay: Flow microcalorimetry, p-t curves of respiring cells in glucose buffer; assay type: cell-based; settings: for Effect on power: neomycin alone added to respiring E.coli, Fig. 16; for Effect on p-t curve / power output: Polymyxin B alone, concentration not stated, Fig. 15
Description: For a typical calorimetric incubation the medium was passed through the calorimetric vessel at the same flow rate and temperature as those used in the experiment to establish a steady baseline deflection. The following operations then took place to a strict timetable. The liquid nitrogen stored ampoule was thawed at 38°C for 3 min and then stirred for 20 sec on a whirlimixer. The bacterial suspension (0.5-1.5ml) volumes was inoculated into the medium (100ml) two minutes after completion of thawing. A Gilson automatic pipette was used for inoculation. The calorimeter inlet flow-line was placed in the incubation medium 30 seconds after inoculation. The flowing incubation medium reached the calorimetric vessel two min after inlet flow-line insertion. At this time the recording of the p-t curves was started. Eight min after inoculation the outflow from the calorimeter was returned to the fermenter (after the "baseline" medium had run to waste but before the inoculated medium ran to waste) thus making a closed system. Aeration was started as soon as the inlet tube was inserted in the fermenter. Microbiological purity of the culture was checked by plating out a sample of the culture at the end of each incubation on nutrient agar (lab M).
The output of calorimetric experiments is a plot of power (energy evolution per unit of time) as a function of time. The unit of power (p) is the Watt (W) and the unit of time is the hour (h). In some experiments seconds (s) were used as time unit.
E.coli was suspended in 10% DMSO prior to freezing and the viable counts were for batch 1: pre-freeze: 4.0 ± 0.6_ x 10^10 cfu/ml and post -freeze 2.0 ± 0.44 x 10^10 cfu/ml and for batch 2: pre-freeze: 3.45 ± 0.58 x 10^10 cfu/ml and post-freeze 2.93 ± 0.43 x 10^10 cfu/ml. The freezing rate for both batches was 20°C/min the survival rate was 50% for batch 1 and 85% for batch 2. These differences may have been due to batch 1 being kept for 24h at 4°C before being frozen.
The respiration experiments were carried out in glucose buffer at different pH. The respiration curves obtained from batch 1 (inoculum 2 x 10^10 cfu/ml) and batch 2 Inoculum 3.2 x 10^10 cfu/ml) were essentially similar and a mean was used as a reference). The respiration experiments were carried out at pH 7 for polymyxin and Znbacitracin and at pH 8 for neomycin. No differences in p-t control curves could be observed at pH 7 or pH 8.
The p-t curves rose and reached a plateau as has been observed for respiration of yeasts and some 20 min later fell to a lower plateau value. Prior incubation of the cells in the buffered glucose for periods up to 20 min before presentation to the calorimeter could reduce or entirely remove this effect.

Bacillus Pumilus = assay: Flow microcalorimetry, p-t curves of growing culture with antibiotics and mixtures; assay type: cell-based
Excerpt: To the vertical face of the vessel close to its base, equidistantly spaced around the circumference, ports were fitted for an oxygen electrode and for sampling/inoculation. The fermenter was closed with a flat flanged glass lid which had five ports accommodating respectively, gas inlet tube, gas exhaust (via air condenser), inlet and outlet flow-lines to and from the calorimeter. The fermenter and lid was sealed with a p.t.f.e. gasket and clamped with a metal clip. The fermenter was placed on a magnetic stirring unit in a water jacket which allowed circulation of the thermostatically controlled water at 30°C or 37°C. The fermenter which contained a Teflon coated magnetic stirring bar, was sterilised by autoclaving.
For a typical calorimetric incubation the medium was passed through the calorimetric vessel at the same flow rate and temperature as those used in the experiment to establish a steady baseline deflection. The following operations then took place to a strict timetable. The liquid nitrogen stored ampoule was thawed at 38°C for 3 min and then stirred for 20 sec on a whirlimixer. The bacterial suspension (0.5-1.5ml) volumes was inoculated into the medium (100ml) two minutes after completion of thawing. A Gilson automatic pipette was used for inoculation. The calorimeter inlet flow-line was placed in the incubation medium 30 seconds after inoculation. […]

[1] = POLB 6.3 ug/ml, respiration, pH 7

NC[C@@H]1O[C@H](O[C@H]2[C@@H](O)[C@H](O[C@@H]3[C@@H](O)[C@H](N)C[C@H](N)[C@H]3O[C@H]3O[C@H](CN)[C@@H](O)[C@H](O)[C@H]3N)O[C@@H]2CO)[C@H](N)[C@@H](O)[C@@H]1O [NEO, neomycin]
Linear dose-response range (respiring E.coli; NEO, respiration, pH 8): 10 to 100 µg/mL | Effect on heat output (respiring E.coli; all concentrations of Neomycin, respiring E.coli): caused an increased heat output | Effect on power (respiring E.coli; listed as Neomycin): caused an increase in power output | Effect on power (respiring E.coli; listed as neomycin): caused an increase in power | Range of linear relationship between dose and the reciprocal of increase in response from the control curve (respiring E.coli; neomycin, respiring E.coli): 20 to 100 µg/mL | Effect on power output in growth studies (Bacillus Pumilus; concentration not given): increase in power output

Polymyxin B [POLB]
Observed effect on p-t curves (respiring E.coli; [1]): Reduced height of p-t curve initially | Time of return of p-t curve to baseline (respiring E.coli; [1]): ≤ 1 h | Effect on p-t curve / power output (respiring E.coli; listed as Polymyxin B): reduced the initial peak height and thereafter the p-t curve returned to baseline | Effect on p-t curve / power output (respiring E.coli; listed as polymyxin B): severe reduction in power output followed by a return to baseline | Time within which growth was inhibited completely (Bacillus Pumilus; 20ug/ml POLB, bacterial concentration printed '0?' as % of p-t curve, pH 8.00): Within 9 hours growth was inhibited completely
